Laboratory results published in US20260042755A1, “GPR6 INVERSE AGONISTS” (MapLight Therapeutics, Inc., priority 2022, published 2026).
pIC50: −log10 of the molar value.

Experiments:
GPR3 = molecular target: T1, GPR3 (Homo sapiens, UniProt P46089); experiment: GPR3 antagonist functional cAMP assay (LANCE Ultra cAMP TR-FRET, CHO cells stably expressing GPR3); format: cell-based
T1 construct: expressed in transfected cells; host or cells: CHO cells
Procedure, shortened: (§1)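 10,000 cells/well; KRB buffer + 0.1% BSA + 150 μM Ro 20-1724; cpd 45 min, 37 °C, 0.1% DMSO; TR-FRET cAMP, 665 nm; 4-PL fit, normalized to DMSO (0.1%) and reference (100%) → IC50.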

GPR6 = molecular target: T2, GPR6 (Homo sapiens, UniProt P46095); experiment: GPR6 antagonist functional cAMP assay (LANCE Ultra cAMP TR-FRET, CHO cells stably expressing GPR6); format: cell-based
T2 construct: expressed in transfected cells; host or cells: CHO cells
T2 sequence (P46095 whole entry): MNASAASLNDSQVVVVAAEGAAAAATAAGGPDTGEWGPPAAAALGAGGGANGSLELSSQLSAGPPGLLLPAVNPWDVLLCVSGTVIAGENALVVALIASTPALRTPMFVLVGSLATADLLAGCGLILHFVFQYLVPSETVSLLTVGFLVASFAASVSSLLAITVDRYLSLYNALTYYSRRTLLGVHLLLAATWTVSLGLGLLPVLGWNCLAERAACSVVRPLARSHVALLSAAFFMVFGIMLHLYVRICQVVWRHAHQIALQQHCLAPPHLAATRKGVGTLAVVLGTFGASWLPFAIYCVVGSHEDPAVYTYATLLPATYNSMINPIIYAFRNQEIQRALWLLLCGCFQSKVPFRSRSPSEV
Procedure, shortened: as §1

[1] = CHO cells stably expressing GPR3, cAMP assay (Example 24)
[2] = CHO cells stably expressing GPR6, cAMP assay (Example 24)
[3] = CHO cells stably expressing GPR3, cAMP assay
[4] = CHO cells stably expressing GPR6, cAMP assay
[5] = procedure as described in Example 24

T1 sequence (P46089 whole entry, species assumed): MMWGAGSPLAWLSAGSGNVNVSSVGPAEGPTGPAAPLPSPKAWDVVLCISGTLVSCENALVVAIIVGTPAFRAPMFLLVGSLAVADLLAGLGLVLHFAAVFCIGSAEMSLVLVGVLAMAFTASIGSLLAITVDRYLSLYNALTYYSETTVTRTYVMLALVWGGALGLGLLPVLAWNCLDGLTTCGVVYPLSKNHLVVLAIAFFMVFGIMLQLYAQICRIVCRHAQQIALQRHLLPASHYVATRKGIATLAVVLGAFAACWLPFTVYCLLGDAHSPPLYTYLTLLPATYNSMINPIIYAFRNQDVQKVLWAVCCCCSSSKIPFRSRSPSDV

pIC50 (GPR3; [1]) | pIC50 (GPR6; [2]) | Structure (SMILES) | further results
 |  | Cn1cc(-c2nc3cc(C(O)C(C)(C)O)ncc3nc2N2CCN(Cc3ccc(F)cc3F)CC2)cn1 (centres unmarked) [Compound 268, 1-(3-{4-[(2,4-difluorophenyl)methyl]piperazin-1-yl}-2-(1-methyl-1H-pyrazol-4-yl)pyrido[3,4-b]pyrazin-7-yl)-2-methylpropane-1,2-diol] | pIC50 (GPR3; procedure of Example 24): 4.52 to 6.00; pIC50 (GPR6; procedure of Example 24): > 7.00
 |  | Cn1cc(-c2nc3cc([C@H](O)C(C)(C)O)ncc3nc2N2CCN(Cc3ccc(F)cc3F)CC2)cn1 (stereo in doubt) [Compound 370, (Rel-S)-1-(3-(4-(2,4-difluorobenzyl)piperazin-1-yl)-2-(1-methyl-1H-pyrazol-4-yl)pyrido[3,4-b]pyrazin-7-yl)-2-methylpropane-1,2-diol] | pIC50 (GPR3; procedure of Example 24): 4.52 to 6.00; pIC50 (GPR6; procedure of Example 24): > 7.00
4.52 to 6.00 | 6.00 to 7.00 | COc1ncc(-c2nc3c(nc2N2CCC(Oc4ccc(F)cc4F)CC2)CCN(C(C)=O)C3)cn1 [Compound 190, 1-{2-[4-(2,4-difluorophenoxy)piperidin-1-yl]-3-(2-methoxypyrimidin-5-yl)-5H,6H,7H,8H-pyrido[3,4-b]pyrazin-6-yl}ethan-1-one] | 
4.52 to 6.00 | 4.52 to 6.00 | CC(=O)N1CCc2nc(N3CCC(Oc4ccc(F)cc4F)CC3)c(-c3cnc4n3CCN(C)C4)nc2C1 [Compound 90, 1-(2-(4-(2,4-difluorophenoxy)piperidin-1-yl)-3-(7-methyl-5,6,7,8-tetrahydroimidazo[1,2-a]pyrazin-3-yl)-7,8-dihydropyrido[3,4-b]pyrazin-6(5H)-yl)ethan-1-one] | 
4.52 to 6.00 | 6.00 to 7.00 | O=C(CN1CCOCC1)N1CCc2nc(N3CCC(Oc4ccc(F)cc4F)CC3)c(-c3cn[nH]c3)nc2C1 [Compound 149, 1-{2-[4-(2,4-difluorophenoxy)piperidin-1-yl]-3-(1H-pyrazol-4-yl)-5H,6H,7H,8H-pyrido[3,4-b]pyrazin-6-yl}-2-(morpholin-4-yl)ethan-1-one] | 
 |  | CC(C)(O)C(=O)c1cc2nc(N3CCN(Cc4ccc(F)cc4F)CC3)c(-c3cnn(C(F)F)c3)nc2cn1 [Compound 566, 1-{3-[1-(difluoromethyl)-4-pyrazolyl]-2-{4-[(2,4-difluorophenyl)methyl]-1-piperazinyl}-1,4,6-triaza-7-naphthyl}-2-hydroxy-2-methyl-1-propanone] | pIC50 (GPR3; [3]): 4.52 to 6.00; pIC50 (GPR6; [4]): 6.00 to 7.00
 |  | CC(C)(O)C(=O)N1CCc2nc(N3CCC(Oc4ccc(F)cc4F)CC3)c(-c3ccc(F)c(N)n3)nc2C1 [Compound 639, 1-{3-(6-amino-5-fluoro-2-pyridyl)-2-[4-(2,4-difluorophenoxy)-1-piperidyl]-5,6,7,8-tetrahydro-1,4,6-triaza-6-naphthyl}-2-hydroxy-2-methyl-1-propanone] | pIC50 (GPR3; procedure of Example 24): 6.00 to 7.00; pIC50 (GPR6; procedure of Example 24): 6.00 to 7.00
 |  | COc1ccc(CN2CCN(c3nc4c(nc3-c3cnn(C)c3)CN(C(C)=O)CC4)CC2)cc1 [Compound 317, 1-(2-{4-[(4-methoxyphenyl)methyl]piperazin-1-yl}-3-(1-methyl-1H-pyrazol-4-yl)-5H,6H,7H,8H-pyrido[3,4-b]pyrazin-6-yl)ethan-1-one] | pIC50 (GPR3; procedure of Example 24): 4.52 to 6.00; pIC50 (GPR6; procedure of Example 24): 4.52 to 6.00
6.00 to 7.00 | ≤ 4.52 | CC(=O)N1CCc2nc(N3CCC(C(=O)N(C)C)C3)c(-c3cnn(C)c3)nc2C1 (centres unmarked) [Compound 388, 1-[6-acetyl-3-(1-methyl-1H-pyrazol-4-yl)-5H,6H,7H,8H-pyrido[3,4-b]pyrazin-2-yl]-N,N-dimethylpyrrolidine-3-carboxamide] | 
4.52 to 6.00 | 4.52 to 6.00 | COc1cncc(-c2nc3cnc(CO)cc3nc2N2CCN(Cc3ccc(F)cc3F)CC2)n1 [Compound 95, (2-(4-(2,4-difluorobenzyl)piperazin-1-yl)-3-(6-methoxypyrazin-2-yl)pyrido[3,4-b]pyrazin-7-yl)methanol] | 
4.52 to 6.00 | 4.52 to 6.00 | CC(=O)N1CCc2nc(N3CCC(Oc4ccc(F)cc4F)CC3)c(-c3cnn4c3CN(C)CC4)nc2C1 [Compound 110, 1-{2-[4-(2,4-difluorophenoxy)piperidin-1-yl]-3-{5-methyl-4H,5H,6H,7H-pyrazolo[1,5-a]pyrazin-3-yl}-5H,6H,7H,8H-pyrido[3,4-b]pyrazin-6-yl}ethan-1-one] | 
 |  | COC[C@](C)(O)c1cc2nc(-c3cnn(C)c3)c(N3CCC(Oc4ccc(F)cc4F)CC3)nc2cn1 (single isomer, unassigned) [Compound 689] | pIC50 (GPR3; procedure of Example 24): 6.00 to 7.00; pIC50 (GPR6; procedure of Example 24): 6.00 to 7.00
4.52 to 6.00 | 6.00 to 7.00 | CC(=O)N1CCc2nc(N3CCC(Oc4ccc(F)cc4F)CC3)c(-c3cnn(C(C)C#N)c3)nc2C1 (centres unmarked) [Compound 208, 2-(4-{6-acetyl-2-[4-(2,4-difluorophenoxy)piperidin-1-yl]-5H,6H,7H,8H-pyrido[3,4-b]pyrazin-3-yl}-1H-pyrazol-1-yl)propanenitrile] | 
4.52 to 6.00 | 4.52 to 6.00 | COc1cccc(-c2nc3c(nc2N2CCC(Oc4ccc(F)cc4F)CC2)CCN(S(C)(=O)=O)C3)n1 [Compound 59, 2-(4-(2,4-difluorophenoxy)piperidin-1-yl)-3-(6-methoxypyridin-2-yl)-6-(methylsulfonyl)-5,6,7,8-tetrahydropyrido[3,4-b]pyrazine] | 
 |  | CC(C)(O)[C@H](O)c1cc2nc(N3CCN(Cc4ccc(F)cc4F)CC3)c(-c3cnn(C4CC4)c3)nc2cn1 (single isomer, unassigned) [Compound 576] | pIC50 (GPR3; [3]): 4.52 to 6.00; pIC50 (GPR6; [4]): 6.00 to 7.00
4.52 to 6.00 | 4.52 to 6.00 | CC(=O)N1CCc2nc(N3CCC(Oc4ccc(F)cc4F)CC3)c(C3CCC(F)(F)CC3)nc2C1 [Compound 217, 1-[3-(4,4-difluorocyclohexyl)-2-[4-(2,4-difluorophenoxy)piperidin-1-yl]-5H,6H,7H,8H-pyrido[3,4-b]pyrazin-6-yl]ethan-1-one] | 
 |  | CCn1cc(-c2nc3cnc(C(C)(O)C(C)(C)O)cc3nc2N2CCC(Oc3ccc(F)cc3F)CC2)cn1 (centres unmarked) [Compound 631, 2-{2-[4-(2,4-difluorophenoxy)-1-piperidyl]-3-(1-ethyl-4-pyrazolyl)-1,4,6-triaza-7-naphthyl}-3-methyl-2,3-butanediol] | pIC50 (GPR3; procedure of Example 24): 4.52 to 6.00; pIC50 (GPR6; procedure of Example 24): 6.00 to 7.00
 |  | Fc1ccc(NC2CCN(c3nc4ccncc4nc3-c3cn[nH]c3)CC2)c(F)c1 [Compound 35, 1-(3-(1H-pyrazol-4-yl)pyrido[3,4-b]pyrazin-2-yl)-N-(2,4-difluorophenyl)piperidin-4-amine] | pIC50 (GPR3; [5]): 4.52 to 6.00; pIC50 (GPR6; [5]): 4.52 to 6.00
4.52 to 6.00 | 6.00 to 7.00 | CC(=O)N1Cc2nc(-c3cnn(C)c3)c(N3CCC(Oc4ccc(F)cc4F)CC3)nc2CC1C (single isomer, unassigned) [Compound 445] | 
 |  | COCn1ccnc1-c1nc2ccncc2nc1N1CCN(Cc2ccc(F)cc2Cl)CC1 [Compound 28, 1-[(2-chloro-4-fluorophenyl)methyl]-4-{2-[1-(methoxymethyl)-1H-imidazol-2-yl]pyrido[3,4-b]pyrazin-3-yl}piperazine] | pIC50 (GPR3; [5]): 6.00 to 7.00; pIC50 (GPR6; [5]): ≤ 4.52
4.52 to 6.00 | 6.00 to 7.00 | CC(=O)N1CCc2nc(N3CCC(Oc4ccc(F)cc4F)CC3)c(-c3cnn(CC#N)c3)nc2C1 [Compound 81, 2-(4-{6-acetyl-2-[4-(2,4-difluorophenoxy)piperidin-1-yl]-5H,6H,7H,8H-pyrido[3,4-b]pyrazin-3-yl}-1H-pyrazol-1-yl)acetonitrile] | 
4.52 to 6.00 | ≤ 4.52 | CC(=O)N1CCc2nc(N3CCC(C(=O)Nc4ccc(F)cc4)C3)c(-c3cnn(C)c3)nc2C1 (centres unmarked) [Compound 391, 1-[6-acetyl-3-(1-methyl-1H-pyrazol-4-yl)-5H,6H,7H,8H-pyrido[3,4-b]pyrazin-2-yl]-N-(4-fluorophenyl)pyrrolidine-3-carboxamide] | 
4.52 to 6.00 | 4.52 to 6.00 | COc1cncc(-c2nc3cnc(C)cc3nc2N2CCC(Oc3ccc(F)cc3F)CC2)n1 [Compound 230, 2-{2-[4-(2,4-difluorophenoxy)piperidin-1-yl]-7-methylpyrido[3,4-b]pyrazin-3-yl}-6-methoxypyrazine] | 
4.52 to 6.00 | 6.00 to 7.00 | CCn1cc(-c2nc3c(nc2N2CCC(Oc4ccc(F)cc4F)CC2)CCN(C(=O)C2CC(F)(F)CN2C)C3)cn1 (centres unmarked) [Compound 483, (4,4-difluoro-1-methylpyrrolidin-2-yl)(2-(4-(2,4-difluorophenoxy)piperidin-1-yl)-3-(1-ethyl-1H-pyrazol-4-yl)-7,8-dihydropyrido[3,4-b]pyrazin-6(5H)-yl)methanone] | 
 |  | CC(=O)N1CCc2nc(N3CCN(Cc4cc(F)ccc4F)CC3)c(-c3cnn(C)c3)nc2C1 [Compound 505, 1-(2-{4-[(2,5-difluorophenyl)methyl]-1-piperazinyl}-3-(1-methyl-4-pyrazolyl)-5,6,7,8-tetrahydro-1,4,6-triaza-6-naphthyl)-1-ethanone] | pIC50 (GPR3; [3]): 4.52 to 6.00; pIC50 (GPR6; [4]): 6.00 to 7.00
 |  | CC(=O)N1CCc2nc(N3CC[C@H](Oc4ccc(F)cc4F)[C@@H](F)C3)c(-c3cnn(C)c3)nc2C1 (single isomer, unassigned) [Compound 331] | pIC50 (GPR3; procedure of Example 24): 4.52 to 6.00; pIC50 (GPR6; procedure of Example 24): 4.52 to 6.00
4.52 to 6.00 | 4.52 to 6.00 | COCC(=O)N1CCc2nc(N3CCC(Oc4ccc(F)cc4F)CC3)c(-c3cnn(C4CCCCO4)c3)nc2C1 (centres unmarked) [Compound 201, 1-{2-[4-(2,4-difluorophenoxy)piperidin-1-yl]-3-[1-(oxan-2-yl)-1H-pyrazol-4-yl]-5H,6H,7H,8H-pyrido[3,4-b]pyrazin-6-yl}-2-methoxyethan-1-one] | 
 |  | CC(=O)N1CCc2nc(N3CCN(Cc4cscn4)CC3)c(-c3cnn(C)c3)nc2C1 [Compound 516, 1-[3-(1-methyl-4-pyrazolyl)-2-{4-[(1,3-thiazol-4-yl)methyl]-1-piperazinyl}-5,6,7,8-tetrahydro-1,4,6-triaza-6-naphthyl]-1-ethanone] | pIC50 (GPR3; [3]): ≤ 4.52; pIC50 (GPR6; [4]): 4.52 to 6.00
